# Results from patent US20090311237A1, “Combination therapy using a soluble hyaluronidase and a bisphosphonate” (priority 2008, published 2009).
# Read-outs that look alike come from different tables or passages of the source.
# Test: Phase 1 Stage 1 clinical pharmacokinetics of SC ZA co-administered with rHuPH20
# Assay type: in vivo, human
# Settings: human, serum, sc; for AUC(0-t): AUC (0-48 h); for AUC(0-t) / Cmax / AUC(0-inf) / Tmax: ZA […] SC; for AUC(0-inf): read-out: AUC (0-inf); for Tmax: read-out: Tmax; for concentration at 0 h: 0 h post infusion; for concentration at 10 min: 10 min post infusion; for concentration at 0.5 h: 0.5 h post infusion; for concentration at 1 h: 1 h post infusion; for concentration at 2 h: 2 h post infusion; for concentration at 4 h: 4 h post infusion; for concentration at 6 h: 6 h post infusion; for concentration at 8 h: 8 h post infusion
# Experimental: A pharmacokinetic study of zoledronic acid (ZA) co-administered with rHuPH20 in human subjects was conducted. The primary objective of the study was to determine the bioavailability of zoledronic acid dosed via subcutaneous (SC) co-administration with human recombinant hyaluronidase PH20 (rHuPH20). […] The patients were administered the prescribed dosage formulations as follows: Cohorts 1-5 were administered a single subcutaneous infusion in a dosage volume of 100 ml at a rate of 3 mL/min. […] The dosing solution is administered via needle or catheter into the SC space of the left anterior thigh (midway between the anterior iliac crest and the cephalad border of the patella). For cohorts 1-5, the dosing solutions were administered by a controlled rate infusion pump at approximately 3 mL/minute. […] The dosing solutions were administered by syringe push bolus injection. […] Serum concentration of ZA was determined using a qualified LC-MS-MS assay after derivatization with diazomethane (Zhu, L S et al. (2006) Rapid Commun. […] The assay range was from 2.0 to 400 ng/mL with a lower limit of quantitation (LLOQ) at 2.0 ng/mL. […] Non-compartmental analysis was used for derivation of primary and secondary pharmacokinetic (PK) parameters. […] Summary statistics (mean, standard deviation, and median) were calculated using JMP or Microsoft Excel.
# [1] = Subj 21, inf 0.556 hr, PH20 24000 U
# [2] = Subj 25, inf 0.549 hr, PH20 23736 U
# [3] = Subj 31, inf 0.554 hr, PH20 23952 U
# [4] = Subj 32, inf 0.556 hr, PH20 24000 U
# [5] = Subj 51, inf 0.251 hr, PH20 6024 U
# [6] = Subj 1, inf 0.554 hr, PH20 23928 U
# [7] = Subj 8, inf 0.531 hr, PH20 22944 U
# [8] = Subj 11, inf 0.554 hr, PH20 23928 U
# [9] = Subj 16, inf 0.553 hr, PH20 23904 U
# [10] = ZA 0.25 mg SC infusion + 24000 Units rHuPH20, individual subjects, read-out: Zoledronic Acid Concentration
# [11] = ZA 0.25 mg SC infusion + 24000 Units rHuPH20, n=3, read-out: Mean Conc.
# [12] = ZA 0.25 mg SC infusion + 24000 Units rHuPH20, n=3, read-out: Median Conc.
# [13] = ZA 0.5 mg SC infusion + 24000 Units rHuPH20, individual subjects, read-out: Zoledronic Acid Concentration
# [14] = ZA 0.5 mg SC infusion + 24000 Units rHuPH20, n=3, read-out: Mean Conc.
# [15] = ZA 0.5 mg SC infusion + 24000 Units rHuPH20, n=3, read-out: Median Conc.
structure (smiles),measurement,setting,value
"O=P(O)(O)C(O)(Cn1ccnc1)P(=O)(O)O [ZA, 1-hydroxy-2-(1H-imidazol-1-yl)ethylidene-1,1-bisphosphonic acid]",AUC(0-t),"Subj 18, inf […], PH20 23304 U",69.8 ng·h/mL
same,AUC(0-t),[1],66.1 ng·h/mL
same,AUC(0-t),[2],115 ng·h/mL
same,AUC(0-t),"Subj 26, inf […], PH20 23088 U",150 ng·h/mL
same,AUC(0-t),[3],234 ng·h/mL
same,AUC(0-t),[4],277 ng·h/mL
same,AUC(0-t),[5],471 ng·h/mL
same,AUC(0-t),"Subj 77, inf […], PH20 6000 U",618 ng·h/mL
same,Cmax,[6],7.75 ng/mL
same,AUC(0-inf),[6],29.9 ng·h/mL
same,Tmax,[6],1.02 h
same,Cmax,[7],5.67 ng/mL
same,AUC(0-inf),[7],32.6 ng·h/mL
same,Tmax,[7],1.41 h
same,Cmax,[8],6.84 ng/mL
same,AUC(0-inf),[8],30.8 ng·h/mL
same,Tmax,[8],1.25 h
same,Cmax,[9],15.3 ng/mL
same,AUC(0-inf),[9],62.5 ng·h/mL
same,Tmax,[9],0.8 h
same,Cmax,"Subj 18, inf […], PH20 23304 U",17.1 ng/mL
same,AUC(0-inf),"Subj 18, inf […], PH20 23304 U",68.1 ng·h/mL
same,Tmax,"Subj 18, inf […], PH20 23304 U",1.29 h
same,Cmax,[1],14.2 ng/mL
same,AUC(0-inf),[1],64.3 ng·h/mL
same,Tmax,[1],1.31 h
same,Cmax,[2],30.1 ng/mL
same,AUC(0-inf),[2],117 ng·h/mL
same,Tmax,[2],1.3 h
same,Cmax,"Subj 26, inf […], PH20 23088 U",33.4 ng/mL
same,AUC(0-inf),"Subj 26, inf […], PH20 23088 U",153 ng·h/mL
same,Tmax,"Subj 26, inf […], PH20 23088 U",1.03 h
same,Cmax,[3],53 ng/mL
same,AUC(0-inf),[3],239 ng·h/mL
same,Tmax,[3],1.54 h
same,Cmax,[4],58.7 ng/mL
same,AUC(0-inf),[4],295 ng·h/mL
same,Tmax,[4],1.56 h
same,Cmax,[5],95.4 ng/mL
same,AUC(0-inf),[5],508 ng·h/mL
same,Tmax,[5],0.52 h
same,Cmax,"Subj 77, inf […], PH20 6000 U",147 ng/mL
same,AUC(0-inf),"Subj 77, inf […], PH20 6000 U",678 ng·h/mL
same,Tmax,"Subj 77, inf […], PH20 6000 U",0.75 h
same,concentration at 0 h,[10],4.5 ng/mL
same,concentration at 0 h,[11],4.74 ng/mL
same,concentration at 0 h,[12],4.69 ng/mL
same,concentration at 10 min,[10],7.43 ng/mL
same,concentration at 10 min,[11],5.76 ng/mL
same,concentration at 10 min,[12],4.97 ng/mL
same,concentration at 0.5 h,[10],7.75 ng/mL
same,concentration at 0.5 h,[11],6.39 ng/mL
same,concentration at 0.5 h,[12],6.25 ng/mL
same,concentration at 1 h,[10],7.25 ng/mL
same,concentration at 1 h,[11],6.51 ng/mL
same,concentration at 1 h,[12],6.6 ng/mL
same,concentration at 2 h,[10],5.42 ng/mL
same,concentration at 2 h,[11],5.06 ng/mL
same,concentration at 2 h,[12],5.42 ng/mL
same,concentration at 4 h,[10],2.56 ng/mL
same,concentration at 4 h,[11],3.02 ng/mL
same,concentration at 4 h,[12],3.06 ng/mL
same,concentration at 6 h,[10],1.2 ng/mL
same,concentration at 6 h,[11],1.52 ng/mL
same,concentration at 6 h,[12],1.35 ng/mL
same,concentration at 8 h,[10],0.56 ng/mL
same,concentration at 8 h,[11],0.82 ng/mL
same,concentration at 8 h,[12],0.79 ng/mL
same,concentration at 0 h,[13],10.8 ng/mL
same,concentration at 0 h,[14],11.8 ng/mL
same,concentration at 0 h,[15],11.1 ng/mL
same,concentration at 10 min,[13],15 ng/mL
same,concentration at 10 min,[14],15 ng/mL
same,concentration at 10 min,[15],15 ng/mL
same,concentration at 0.5 h,[13],13.8 ng/mL
same,concentration at 0.5 h,[14],14.4 ng/mL
same,concentration at 0.5 h,[15],13.8 ng/mL
same,concentration at 1 h,[13],14.1 ng/mL
same,concentration at 1 h,[14],14.3 ng/mL
same,concentration at 1 h,[15],14.1 ng/mL
same,concentration at 2 h,[13],11.1 ng/mL
same,concentration at 2 h,[14],11.1 ng/mL
same,concentration at 2 h,[15],11.1 ng/mL
same,concentration at 4 h,[13],5.27 ng/mL
same,concentration at 4 h,[14],5.72 ng/mL
same,concentration at 4 h,[15],5.87 ng/mL
same,concentration at 6 h,[13],2.5 ng/mL
same,concentration at 6 h,[14],2.69 ng/mL
